PubChem BioAssay AID248 (DTP/NCI, 2004)
Where “and” joins values, the source holds several entries; their conditions need not be identical. Equal entries are not always repeated. Toxic doses and inconclusive results are not listed.

System: L1210 leukemia ip in BDF1 mice, survival T/C
Experiment: NCI In Vivo Anticancer Drug Screen. Data for tumor model L1210 Leukemia (intraperitoneal) in B6D2F1 (BDF1) mice
Details: endpoint: mean survival time, higher = longer survival
Outline: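 Transplantable tumor model; survival measured in treated vs vehicle control mice. Value = treated/control.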

[1] = dose: 100.0 mg/kg/injection, schedule: Q01DX009 (ip), vehicle: saline
[2] = dose: 100.0 mg/kg/injection, schedule: Q04DX002 (ip), vehicle: saline with Tween-80
[3] = dose: 100.0 mg/kg/injection, schedule: Q01DX001 (ip), vehicle: saline
[4] = dose: 200.0 mg/kg/injection, schedule: Q01DX001 (ip), vehicle: saline
[5] = dose: 400.0 mg/kg/injection, schedule: Q01DX001 (ip), vehicle: saline
[6] = dose: 75.0 mg/kg/injection, schedule: Q04DX003 (ip), vehicle: Klucel (hydroxypropylcellulose) (HPC)
[7] = dose: 150.0 mg/kg/injection, schedule: Q04DX003 (ip), vehicle: Klucel (hydroxypropylcellulose) (HPC)
[8] = dose: 300.0 mg/kg/injection, schedule: Q04DX003 (ip), vehicle: Klucel (hydroxypropylcellulose) (HPC)
[9] = dose: 50.0 mg/kg/injection, schedule: Q01DX001 (ip), vehicle: saline

## CN=C(NC)N/N=C(C)\C=N\NC(=NC)NC
dose: 1.0 mg/kg/injection, schedule: Q01DX Z (ip), vehicle: methylcellulose (MC)
  T/C: 103 % of control
dose: 2.0 mg/kg/injection, schedule: Q01DX Z (ip), vehicle: methylcellulose (MC)
  T/C: 92 % of control
dose: 4.0 mg/kg/injection, schedule: Q01DX Z (ip), vehicle: methylcellulose (MC)
  T/C: 101 % of control
dose: 8.0 mg/kg/injection, schedule: Q01DX Z (ip), vehicle: methylcellulose (MC)
  T/C: 104 % of control
dose: 15.0 mg/kg/injection, schedule: Q01DX Z (ip), vehicle: saline
  T/C: 107 % of control
dose: 15.0 mg/kg/injection, schedule: Q01DX Z (oral), vehicle: methylcellulose (MC)
  T/C: 104 % of control
dose: 30.0 mg/kg/injection, schedule: Q01DX Z (ip), vehicle: methylcellulose (MC)
  T/C: 160 % of control
dose: 30.0 mg/kg/injection, schedule: Q01DX Z (ip), vehicle: saline
  T/C: 97 % of control
dose: 30.0 mg/kg/injection, schedule: Q01DX Z (oral), vehicle: methylcellulose (MC)
  T/C: 96 % of control
dose: 60.0 mg/kg/injection, schedule: Q01DX Z (ip), vehicle: saline
  T/C: 103 % of control
dose: 60.0 mg/kg/injection, schedule: Q01DX Z (oral), vehicle: methylcellulose (MC)
  T/C: 107 % of control
dose: 120.0 mg/kg/injection, schedule: Q01DX Z (ip), vehicle: saline
  T/C: 96 % of control
dose: 120.0 mg/kg/injection, schedule: Q01DX Z (oral), vehicle: methylcellulose (MC)
  T/C: 104 % of control
dose: 240.0 mg/kg/injection, schedule: Q01DX Z (ip), vehicle: saline
  T/C: 100 % of control
dose: 240.0 mg/kg/injection, schedule: Q01DX Z (oral), vehicle: methylcellulose (MC)
  T/C: 95 % of control
dose: 480.0 mg/kg/injection, schedule: Q01DX009 (oral), vehicle: saline
  T/C: 94 % of control
dose: 480.0 mg/kg/injection, schedule: Q01DX Z (oral), vehicle: methylcellulose (MC)
  T/C: 96 % of control
dose: 960.0 mg/kg/injection, schedule: Q01DX009 (oral), vehicle: saline
  T/C: 94 % of control

## COc1ccc(OC)c(CBr)c1CBr
dose: 5.0 mg/kg/injection, schedule: Q01DX001 (ip), vehicle: saline
  T/C: 101 % of control
dose: 10.0 mg/kg/injection, schedule: Q01DX001 (ip), vehicle: saline
  T/C: 98 % of control
dose: 20.0 mg/kg/injection, schedule: Q01DX001 (ip), vehicle: saline
  T/C: 101 % of control
dose: 40.0 mg/kg/injection, schedule: Q01DX001 (ip), vehicle: saline
  T/C: 98 % of control
dose: 80.0 mg/kg/injection, schedule: Q01DX001 (ip), vehicle: saline
  T/C: 104 % of control

## CCCCCCCCCCCCCC(=O)O
dose: 100.0 mg/kg/injection, schedule: Q04DX003 (ip), vehicle: Klucel (hydroxypropylcellulose) (HPC)
  T/C: 92 % of control
dose: 200.0 mg/kg/injection, schedule: Q04DX003 (ip), vehicle: Klucel (hydroxypropylcellulose) (HPC)
  T/C: 94 % of control
dose: 400.0 mg/kg/injection, schedule: Q04DX003 (ip), vehicle: Klucel (hydroxypropylcellulose) (HPC)
  T/C: 95 % of control

## CC(=O)C[N+]12CN3CN(CN(C3)C1)C2
dose: 25.0 mg/kg/injection, schedule: Q01DX009 (ip), vehicle: saline
  T/C: 96 % of control
dose: 50.0 mg/kg/injection, schedule: Q01DX005 (ip), vehicle: saline
  T/C: 103 % of control
dose: 50.0 mg/kg/injection, schedule: Q01DX009 (ip), vehicle: saline
  T/C: 111 % of control
dose: 100.0 mg/kg/injection, schedule: Q01DX005 (ip), vehicle: saline
  T/C: 103 % of control
[1]
  T/C: 109 % of control
dose: 100.0 mg/kg/injection, schedule: Q04DX002 (ip), vehicle: saline
  T/C: 96 % of control
dose: 200.0 mg/kg/injection, schedule: Q04DX002 (ip), vehicle: saline
  T/C: 107 % of control

## CN1C=CC(=Cc2ccccc2)C=C1
dose: 12.5 mg/kg/injection, schedule: Q04DX002 (ip), vehicle: Klucel (hydroxypropylcellulose) (HPC)
  T/C: 90 % of control
dose: 25.0 mg/kg/injection, schedule: Q04DX002 (ip), vehicle: Klucel (hydroxypropylcellulose) (HPC)
  T/C: 107 % of control
dose: 50.0 mg/kg/injection, schedule: Q04DX002 (ip), vehicle: Klucel (hydroxypropylcellulose) (HPC)
  T/C: 107 % of control

## C=C1CC2(OC1=O)C(=O)N(C)c1ccc(I)cc12 (centres undefined)
dose: 25.0 mg/kg/injection, schedule: Q04DX002 (ip), vehicle: saline with Tween-80
  T/C: 101 % of control
dose: 50.0 mg/kg/injection, schedule: Q04DX002 (ip), vehicle: saline with Tween-80
  T/C: 97 % of control
[2]
  T/C: 102 % of control

## O=C(NN=c1c2ccccc2sc2ccccc12)c1cccc2ccccc12
[3]
  T/C: 103 % of control
[4]
  T/C: 105 % of control
[5]
  T/C: 97 % of control

## CC(C)CSC(SCC(C)C)C(OC(=O)c1ccccc1)C(OC(=O)c1ccccc1)C(COC(=O)c1ccccc1)OC(=O)c1ccccc1 (centres undefined)
dose: 100.0 mg/kg/injection, schedule: Q04DX002 (ip), vehicle: Klucel (hydroxypropylcellulose) (HPC)
  T/C: 103 % of control
dose: 200.0 mg/kg/injection, schedule: Q04DX002 (ip), vehicle: Klucel (hydroxypropylcellulose) (HPC)
  T/C: 94 % of control
dose: 400.0 mg/kg/injection, schedule: Q04DX002 (ip), vehicle: Klucel (hydroxypropylcellulose) (HPC)
  T/C: 87 % of control

## CCN(CC)CCOCC(=O)Nc1c(C)cccc1Cl
dose: 100.0 mg/kg/injection, schedule: Q04DX003 (ip), vehicle: saline sonified
  T/C: 93 % of control
dose: 200.0 mg/kg/injection, schedule: Q04DX003 (ip), vehicle: saline sonified
  T/C: 106 % of control

## NNC(=S)N/N=C/c1ccccc1
dose: 100.0 mg/kg/injection, schedule: Q01DX001 (ip), vehicle: Klucel (hydroxypropylcellulose) (HPC)
  T/C: 93 % of control
dose: 200.0 mg/kg/injection, schedule: Q01DX001 (ip), vehicle: Klucel (hydroxypropylcellulose) (HPC)
  T/C: 93 % of control
dose: 400.0 mg/kg/injection, schedule: Q01DX001 (ip), vehicle: Klucel (hydroxypropylcellulose) (HPC)
  T/C: 100 % of control

## CN(CC(=O)c1ccc(-c2ccccc2)cc1)C(=O)c1ccccc1
[6]
  T/C: 96 % of control
[7]
  T/C: 89 % of control
[8]
  T/C: 89 % of control

## CCCCCCCCCCCCCCCC(=O)Oc1ccc(/C(CC)=C(/CC)c2ccc(OC(=O)CCCCCCCCCCCCCCC)cc2)cc1
dose: 100.0 mg/kg/injection, schedule: Q04DX003 (ip), vehicle: saline with Tween-80
  T/C: 89 % of control
dose: 200.0 mg/kg/injection, schedule: Q01DX009 (ip), vehicle: saline with Tween-80
  T/C: 91 % of control
dose: 200.0 mg/kg/injection, schedule: Q04DX003 (ip), vehicle: saline with Tween-80
  T/C: 100 % of control
dose: 400.0 mg/kg/injection, schedule: Q01DX009 (ip), vehicle: saline with Tween-80
  T/C: 91 % of control
dose: 400.0 mg/kg/injection, schedule: Q04DX003 (ip), vehicle: saline with Tween-80
  T/C: 89 % of control

## O=C(O)/C=C/c1ccc(O)cc1
[6]
  T/C: 97 % of control
[7]
  T/C: 101 % of control
[8]
  T/C: 109 % of control

## CCOC(=O)Nc1cc(NC(C)CCCN(CC)CC)c2nc(-c3ccccc3)c(-c3ccccc3)nc2n1 (centres undefined)
[9]
  T/C: 93 % of control
[3]
  T/C: 90 % of control

## Nc1cc(C(=O)O)c2ccccc2c1
[3]
  T/C: 89 % of control
[4]
  T/C: 106 % of control
[5]
  T/C: 95 % of control

## C/C(=C\C(C)(C)c1ccccc1)c1ccccc1 (tested in a mixture with another compound)
[9]
  T/C: 90 % of control
[3]
  T/C: 96 % of control
[4]
  T/C: 113 % of control
[5]
  T/C: 116 % of control

## Cc1cc(C)c(NC(=O)/C=C/C(=O)O)c(C)c1
[2]
  T/C: 91 % of control and 92 % of control
dose: 200.0 mg/kg/injection, schedule: Q04DX002 (ip), vehicle: saline with Tween-80
  T/C: 94 % of control and 99 % of control
dose: 800.0 mg/kg/injection, schedule: Q04DX002 (ip), vehicle: saline with Tween-80
  T/C: 103 % of control

## COc1c(Cl)c(Cl)c(Cl)c(Cl)c1Cl
[1]
  T/C: 89 % of control
dose: 100.0 mg/kg/injection, schedule: Q04DX003 (ip), vehicle: acetone
  T/C: 95 % of control
dose: 200.0 mg/kg/injection, schedule: Q01DX009 (ip), vehicle: saline
  T/C: 89 % of control
dose: 200.0 mg/kg/injection, schedule: Q04DX003 (ip), vehicle: acetone
  T/C: 94 % of control
dose: 400.0 mg/kg/injection, schedule: Q04DX003 (ip), vehicle: acetone
  T/C: 96 % of control

## NS(=O)(=O)c1ccc(Br)cc1
dose: 25.0 mg/kg/injection, schedule: Q04DX003 (ip), vehicle: saline
  T/C: 106 % of control
dose: 50.0 mg/kg/injection, schedule: Q04DX003 (ip), vehicle: saline
  T/C: 97 % of control
dose: 100.0 mg/kg/injection, schedule: Q04DX003 (ip), vehicle: saline
  T/C: 100 % of control
dose: 150.0 mg/kg/injection, schedule: Q04DX003 (ip), vehicle: saline
  T/C: 105 % of control
dose: 225.0 mg/kg/injection, schedule: Q04DX003 (ip), vehicle: saline
  T/C: 102 % of control
dose: 335.0 mg/kg/injection, schedule: Q04DX003 (ip), vehicle: saline
  T/C: 105 % of control
